According to PubChem BioAssay AID2060890 (Molecular Pharmacology Branch, DTP, NCI, 2025):
pIC50: −log10 of the molar value.

Test system: LG0703-F948-PDC complex spheroid viability
Test: Anticancer human tumor LG0703-F948-PDC patient-derived lung adenocarcinoma cell line growth inhibition [RAS]
Conditions: for pIC50: curve of first compound; for viability, T/C: stronger effect = lower value
How it was run: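 Multi-cell-type spheroids: tumor cells plus HUVEC endothelial cells and mesenchymal stem cells. RAS-pathway inhibitors were combined with targeted agents, each dosed in half-log steps down from clinical Cmax, or from 10 microM when Cmax was unknown.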

[1] = second compound 0.000949 µM, first compound 0.0316 µM
[2] = second compound 0.000949 µM, first compound 0.1 µM
[3] = second compound 0.000949 µM, first compound 0.316 µM
[4] = second compound 0.000949 µM, first compound 1 µM
[5] = second compound 0.000949 µM, first compound 3.16 µM
[6] = second compound 0.000949 µM, first compound 10 µM
[7] = second compound 0.003 µM, first compound 0.0316 µM
[8] = second compound 0.003 µM, first compound 0.1 µM
[9] = second compound 0.003 µM, first compound 0.316 µM
[10] = second compound 0.003 µM, first compound 1 µM
[11] = second compound 0.003 µM, first compound 3.16 µM
[12] = second compound 0.003 µM, first compound 10 µM
[13] = second compound 0.00949 µM, first compound 0.0316 µM
[14] = second compound 0.00949 µM, first compound 0.1 µM
[15] = second compound 0.00949 µM, first compound 0.316 µM
[16] = second compound 0.00949 µM, first compound 1 µM
[17] = second compound 0.00949 µM, first compound 3.16 µM
[18] = second compound 0.00949 µM, first compound 10 µM
[19] = second compound 0.03 µM, first compound 0.0316 µM
[20] = second compound 0.03 µM, first compound 0.1 µM
[21] = second compound 0.03 µM, first compound 0.316 µM
[22] = second compound 0.03 µM, first compound 1 µM
[23] = second compound 0.03 µM, first compound 3.16 µM
[24] = second compound 0.03 µM, first compound 10 µM
[25] = second compound 0.0949 µM, first compound 0.0316 µM
[26] = second compound 0.0949 µM, first compound 0.1 µM
[27] = second compound 0.0949 µM, first compound 0.316 µM
[28] = second compound 0.0949 µM, first compound 1 µM
[29] = second compound 0.0949 µM, first compound 3.16 µM
[30] = second compound 0.0949 µM, first compound 10 µM
[31] = second compound 0.3 µM, first compound 0.0316 µM
[32] = second compound 0.3 µM, first compound 0.1 µM
[33] = second compound 0.3 µM, first compound 0.316 µM
[34] = second compound 0.3 µM, first compound 1 µM
[35] = second compound 0.3 µM, first compound 3.16 µM
[36] = second compound 0.3 µM, first compound 10 µM
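Further: spheroids exposed to agents for 7 days.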
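Wherever viability, T/C is given: 100% = DMSO vehicle wells.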

Compound: C[C@@H](NC(=O)c1ncnc(N)c1Cl)c1ncc(C(=O)Nc2cc(C(F)(F)F)c(Cl)cn2)s1 + CCn1c(-c2cccnc2C(C)OC)c2c3cc(ccc31)N1CCOC(CC(NC(=O)C(C(C)C)N(C)C(=O)C3(F)CCN(C(=O)C#CC(C)(C)N(C)C)CC3)C(=O)N3CCCC(N3)C(=O)OCC(C)(C)C2)C1
- pIC50 (second compound 0.000949 µM): < 5.00
- pIC50 (second compound 0.003 µM): < 5.00
- pIC50 (second compound 0.00949 µM): < 5.00
- pIC50 (second compound 0.03 µM): < 5.00
- pIC50 (second compound 0.0949 µM): < 5.00
- pIC50 (second compound 0.3 µM): > 7.50
- viability, T/C [1]: 87.6%
- viability, T/C [2]: 106%
- viability, T/C [3]: 118%
- viability, T/C [4]: 110%
- viability, T/C [5]: 102%
- viability, T/C [6]: 90.1%
- viability, T/C [7]: 106%
- viability, T/C [8]: 102%
- viability, T/C [9]: 85.5%
- viability, T/C [10]: 113%
- viability, T/C [11]: 103%
- viability, T/C [12]: 105%
- viability, T/C [13]: 94.1%
- viability, T/C [14]: 108%
- viability, T/C [15]: 91%
- viability, T/C [16]: 103%
- viability, T/C [17]: 92.3%
- viability, T/C [18]: 87.7%
- viability, T/C [19]: 99.6%
- viability, T/C [20]: 105%
- viability, T/C [21]: 88.4%
- viability, T/C [22]: 97%
- viability, T/C [23]: 107%
- viability, T/C [24]: 82.2%
- viability, T/C [25]: 74.4%
- viability, T/C [26]: 71.1%
- viability, T/C [27]: 81.7%
- viability, T/C [28]: 78.3%
- viability, T/C [29]: 88.4%
- viability, T/C [30]: 65.9%
- viability, T/C [31]: 43.5%
- viability, T/C [32]: 42.9%
- viability, T/C [33]: 48.6%
- viability, T/C [34]: 54%
- viability, T/C [35]: 48.1%
- viability, T/C [36]: 37.5%

Compound: CC(=O)OC12COC1CC(O)C1(C)C(=O)C(O)C3=C(C)C(OC(=O)C(O)C(NC(=O)OC(C)(C)C)c4ccccc4)CC(O)(C(OC(=O)c4ccccc4)C21)C3(C)C (stereo unspecified) + C#Cc1c(F)ccc2cc(O)cc(-c3ncc4c(N5CC6CCC(C5)N6)nc(OCC56CCCN5CC(F)C6)nc4c3F)c12
- pIC50 (second compound 0.0316 µM): > 7.50
- pIC50 (second compound 0.1 µM): > 7.50
- pIC50 (second compound 0.316 µM): > 7.50
- pIC50 (second compound 1 µM): > 7.50
- pIC50 (second compound 3.16 µM): > 7.50
- pIC50 (second compound 10 µM): > 7.50
- viability, T/C (second compound 0.0316 µM, first compound 0.0316 µM): 28.1%
- viability, T/C (second compound 0.0316 µM, first compound 0.1 µM): 22.9%
- viability, T/C (second compound 0.0316 µM, first compound 0.316 µM): 23.7%
- viability, T/C (second compound 0.0316 µM, first compound 1 µM): 27.4%
- viability, T/C (second compound 0.0316 µM, first compound 3.16 µM): 33.1%
- viability, T/C (second compound 0.0316 µM, first compound 10 µM): 27.8%
- viability, T/C (second compound 0.1 µM, first compound 0.0316 µM): 23.5%
- viability, T/C (second compound 0.1 µM, first compound 0.1 µM): 27.3%
- viability, T/C (second compound 0.1 µM, first compound 0.316 µM): 24.9%
- viability, T/C (second compound 0.1 µM, first compound 1 µM): 32%
- viability, T/C (second compound 0.1 µM, first compound 3.16 µM): 32.9%
- viability, T/C (second compound 0.1 µM, first compound 10 µM): 25.2%
- viability, T/C (second compound 0.316 µM, first compound 0.0316 µM): 27.2%
- viability, T/C (second compound 0.316 µM, first compound 0.1 µM): 22.6%
- viability, T/C (second compound 0.316 µM, first compound 0.316 µM): 27.7%
- viability, T/C (second compound 0.316 µM, first compound 1 µM): 26.2%
- viability, T/C (second compound 0.316 µM, first compound 3.16 µM): 24.8%
- viability, T/C (second compound 0.316 µM, first compound 10 µM): 22.9%
- viability, T/C (second compound 1 µM, first compound 0.0316 µM): 25.5%
- viability, T/C (second compound 1 µM, first compound 0.1 µM): 26.4%
- viability, T/C (second compound 1 µM, first compound 0.316 µM): 24.6%
- viability, T/C (second compound 1 µM, first compound 1 µM): 26.4%
- viability, T/C (second compound 1 µM, first compound 3.16 µM): 22.7%
- viability, T/C (second compound 1 µM, first compound 10 µM): 20.1%
- viability, T/C (second compound 3.16 µM, first compound 0.0316 µM): 23.5%
- viability, T/C (second compound 3.16 µM, first compound 0.1 µM): 22.8%
- viability, T/C (second compound 3.16 µM, first compound 0.316 µM): 23%
- viability, T/C (second compound 3.16 µM, first compound 1 µM): 18.9%
- viability, T/C (second compound 3.16 µM, first compound 3.16 µM): 16.3%
- viability, T/C (second compound 3.16 µM, first compound 10 µM): 16.1%
- viability, T/C (second compound 10 µM, first compound 0.0316 µM): 17.2%
- viability, T/C (second compound 10 µM, first compound 0.1 µM): 18.5%
- viability, T/C (second compound 10 µM, first compound 0.316 µM): 16%
- viability, T/C (second compound 10 µM, first compound 1 µM): 11.8%
- viability, T/C (second compound 10 µM, first compound 3.16 µM): 8.84%
- viability, T/C (second compound 10 µM, first compound 10 µM): 5.54%

Compound: C[C@@H](NC(=O)c1ncnc(N)c1Cl)c1ncc(C(=O)Nc2cc(C(F)(F)F)c(Cl)cn2)s1 + CCn1c(-c2cc(N3CCN(C)CC3)cnc2C(C)OC)c2c3cc(ccc31)-c1csc(n1)CC(NC(=O)C1CC1C)C(=O)N1CCCC(N1)C(=O)OCC(C)(C)C2
- pIC50 (second compound 0.000949 µM): < 5.00
- pIC50 (second compound 0.003 µM): < 5.00
- pIC50 (second compound 0.00949 µM): > 7.50
- pIC50 (second compound 0.03 µM): > 7.50
- pIC50 (second compound 0.0949 µM): > 7.50
- pIC50 (second compound 0.3 µM): > 7.50
- viability, T/C [1]: 74.7%
- viability, T/C [2]: 78.6%
- viability, T/C [3]: 79.2%
- viability, T/C [4]: 76.4%
- viability, T/C [5]: 83.9%
- viability, T/C [6]: 75.6%
- viability, T/C [7]: 54.3%
- viability, T/C [8]: 46.9%
- viability, T/C [9]: 52.8%
- viability, T/C [10]: 65.1%
- viability, T/C [11]: 55.5%
- viability, T/C [12]: 68.9%
- viability, T/C [13]: 31.6%
- viability, T/C [14]: 28.8%
- viability, T/C [15]: 28.1%
- viability, T/C [16]: 30.3%
- viability, T/C [17]: 33.8%
- viability, T/C [18]: 39.8%
- viability, T/C [19]: 17.5%
- viability, T/C [20]: 17.6%
- viability, T/C [21]: 16.1%
- viability, T/C [22]: 17%
- viability, T/C [23]: 21.2%
- viability, T/C [24]: 21.5%
- viability, T/C [25]: 15.8%
- viability, T/C [26]: 9.99%
- viability, T/C [27]: 11.8%
- viability, T/C [28]: 13.7%
- viability, T/C [29]: 15.9%
- viability, T/C [30]: 13.7%
- viability, T/C [31]: 11.7%
- viability, T/C [32]: 11.5%
- viability, T/C [33]: 13.1%
- viability, T/C [34]: 9.77%
- viability, T/C [35]: 14.9%
- viability, T/C [36]: 15.3%
